According to ChEMBL document CHEMBL1145404, “o-Naphthalenedicarboxaldehyde derivative of 7'-aminonaltrindole as a selective delta-opioid receptor affinity label” (J Med Chem, 2007):

What was measured:
Mu-type opioid receptor [1] = biological target: Mu-type opioid receptor (Homo sapiens, UniProt P35372); assay: Displacement of [3H]diprenorphine from mu opioid receptor expressed in human HEK293 cells; type: cell-based
[2] = biological target: Delta-type opioid receptor (Homo sapiens, UniProt P41143); assay: Displacement of [3H]diprenorphine from delta opioid receptor expressed in human HEK293 cells; type: cell-based
[3] = biological target: Kappa-type opioid receptor (Homo sapiens, UniProt P41145); assay: Displacement of [3H]diprenorphine from kappa opioid receptor expressed in human HEK293 cells; type: cell-based
[4] = biological target: Delta-type opioid receptor (Mus musculus, UniProt P32300); assay: Agonist activity at delta opioid receptor in mouse vas deferens; type: functional, tissue-based
Mu-type opioid receptor [5] = biological target: Mu-type opioid receptor (Cavia porcellus, UniProt P97266); assay: Agonist activity at mu opioid receptor in guinea pig ileum longitudinal muscle; type: functional, tissue-based
[6] = biological target: Opioid receptors; mu & delta (Homo sapiens) (UniProt P41143+P35372); assay: Selectivity for human delta opioid receptor to human mu opioid receptor; type: protein assay
[7] = biological target: Opioid receptors; delta & kappa (Homo sapiens) (UniProt P41145+P41143); assay: Selectivity for human delta opioid receptor to human kappa opioid receptor; type: protein assay
Opioid receptors; delta & kappa (Homo sapiens), sequence (P41143 whole entry, looked up): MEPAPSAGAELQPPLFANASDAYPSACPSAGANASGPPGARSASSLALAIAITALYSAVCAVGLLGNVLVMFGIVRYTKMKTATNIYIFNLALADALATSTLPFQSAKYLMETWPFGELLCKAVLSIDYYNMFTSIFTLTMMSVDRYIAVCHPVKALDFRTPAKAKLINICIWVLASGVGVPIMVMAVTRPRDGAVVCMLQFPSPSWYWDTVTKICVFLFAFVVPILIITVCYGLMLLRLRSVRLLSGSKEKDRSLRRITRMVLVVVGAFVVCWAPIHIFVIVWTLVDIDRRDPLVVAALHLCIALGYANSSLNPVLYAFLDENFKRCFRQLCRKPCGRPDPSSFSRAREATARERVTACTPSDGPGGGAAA
Opioid receptors; delta & kappa (Homo sapiens), sequence (P41145 whole entry, looked up): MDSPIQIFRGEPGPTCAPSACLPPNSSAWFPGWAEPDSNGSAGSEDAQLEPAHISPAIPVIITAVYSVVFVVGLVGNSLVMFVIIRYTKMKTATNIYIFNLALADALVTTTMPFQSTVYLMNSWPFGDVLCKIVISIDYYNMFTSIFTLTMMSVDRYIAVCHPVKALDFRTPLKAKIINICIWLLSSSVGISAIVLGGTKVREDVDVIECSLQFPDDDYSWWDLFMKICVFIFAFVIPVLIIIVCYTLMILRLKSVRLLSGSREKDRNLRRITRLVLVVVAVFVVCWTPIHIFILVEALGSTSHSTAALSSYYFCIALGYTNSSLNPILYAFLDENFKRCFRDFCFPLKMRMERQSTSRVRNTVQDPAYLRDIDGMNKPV

Delta-type opioid receptor (Homo sapiens, UniProt P41143), sequence (P41143 whole entry): as the sequence (P41143 whole entry, looked up) above
Opioid receptors; mu & delta (Homo sapiens), sequence (P35372 whole entry, looked up): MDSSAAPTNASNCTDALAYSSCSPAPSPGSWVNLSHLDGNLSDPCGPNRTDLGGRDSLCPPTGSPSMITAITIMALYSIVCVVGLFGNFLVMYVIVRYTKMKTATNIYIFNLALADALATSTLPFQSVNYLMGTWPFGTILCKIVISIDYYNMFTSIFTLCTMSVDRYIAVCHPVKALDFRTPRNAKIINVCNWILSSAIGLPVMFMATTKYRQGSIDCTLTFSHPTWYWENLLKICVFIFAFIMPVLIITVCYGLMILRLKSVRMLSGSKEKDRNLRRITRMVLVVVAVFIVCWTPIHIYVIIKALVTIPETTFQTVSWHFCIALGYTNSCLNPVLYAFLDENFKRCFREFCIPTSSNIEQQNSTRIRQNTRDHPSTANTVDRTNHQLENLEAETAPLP
Opioid receptors; mu & delta (Homo sapiens), sequence (P41143 whole entry, looked up): as the sequence (P41143 whole entry, looked up) above
Mu-type opioid receptor (Homo sapiens, UniProt P35372), sequence (P35372 whole entry): as the sequence (P35372 whole entry, looked up) above
Mu-type opioid receptor (Cavia porcellus, UniProt P97266), sequence (P97266 whole entry): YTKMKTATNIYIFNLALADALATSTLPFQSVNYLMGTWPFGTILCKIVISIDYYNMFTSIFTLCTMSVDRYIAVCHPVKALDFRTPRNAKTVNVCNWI
Kappa-type opioid receptor, sequence (P41145 whole entry): as the sequence (P41145 whole entry, looked up) above
Delta-type opioid receptor (Mus musculus, UniProt P32300), sequence (P32300 whole entry): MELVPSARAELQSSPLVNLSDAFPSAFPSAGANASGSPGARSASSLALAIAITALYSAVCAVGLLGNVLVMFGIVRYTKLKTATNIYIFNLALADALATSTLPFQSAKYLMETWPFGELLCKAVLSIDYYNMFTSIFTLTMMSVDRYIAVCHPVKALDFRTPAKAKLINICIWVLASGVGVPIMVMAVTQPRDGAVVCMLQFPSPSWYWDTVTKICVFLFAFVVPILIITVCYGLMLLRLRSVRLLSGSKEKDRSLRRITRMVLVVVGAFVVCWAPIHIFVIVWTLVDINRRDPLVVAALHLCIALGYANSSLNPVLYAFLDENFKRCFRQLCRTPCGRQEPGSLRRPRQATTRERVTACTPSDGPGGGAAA

SMILES: O=Cc1cc2ccc(C(=O)Nc3cccc4c5c([nH]c34)[C@@H]3Oc4c(O)ccc6c4[C@@]34CCN(CC3CC3)[C@H](C6)[C@]4(O)C5)cc2cc1C=O
- Ki (Mu-type opioid receptor [1]): 0.144 µM
- Ki [2]: 0.00225 µM
- Ki [3]: 0.153 µM
- IC50 [4]: 0.00046 µM
- IC50 (Mu-type opioid receptor [5]): 0.0195 µM
- Ratio Ki [6]: 64
- Ratio Ki [7]: 68
